The target in the assay is T1, Prostaglandin G/H synthase 2 (Mus musculus, UniProt Q05769).
T1 sequence (Q05769 whole entry): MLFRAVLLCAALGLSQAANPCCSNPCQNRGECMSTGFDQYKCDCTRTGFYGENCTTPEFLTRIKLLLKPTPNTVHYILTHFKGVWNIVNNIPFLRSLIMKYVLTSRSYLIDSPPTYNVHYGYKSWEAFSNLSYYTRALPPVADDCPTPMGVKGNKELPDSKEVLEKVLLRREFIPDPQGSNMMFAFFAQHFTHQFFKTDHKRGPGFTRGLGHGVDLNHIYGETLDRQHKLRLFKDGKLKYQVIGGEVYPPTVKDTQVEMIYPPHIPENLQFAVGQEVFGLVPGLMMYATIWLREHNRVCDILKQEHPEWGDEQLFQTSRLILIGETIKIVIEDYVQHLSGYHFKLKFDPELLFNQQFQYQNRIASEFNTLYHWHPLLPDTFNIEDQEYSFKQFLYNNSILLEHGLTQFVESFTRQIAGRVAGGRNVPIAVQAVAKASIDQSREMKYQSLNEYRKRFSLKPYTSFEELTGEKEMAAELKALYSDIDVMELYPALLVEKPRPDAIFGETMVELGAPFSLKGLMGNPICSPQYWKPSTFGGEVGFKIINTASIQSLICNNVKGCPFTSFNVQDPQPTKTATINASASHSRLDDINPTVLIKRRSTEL
The assay can be described thus: In vitro inhibitory activity against Prostaglandin G/H synthase 2 from mouse peritoneal macrophages.

The text below walks through data of ChEMBL document CHEMBL1137128, “Quantitative structure-activity relationship analysis of a series of 2,3-diaryl benzopyran analogues as novel selective cyclooxygenase-2 inhibitors” (Bioorg Med Chem Lett, 2004).

Each structure is given as a SMILES string.

The molecule `CS(=O)(=O)c1ccc(-c2oc3ccccc3c(=O)c2-c2cc3ccccc3s2)cc1` gave an IC50 of 331 nM.

For orientation: IC50 means the concentration at which inhibition is half-maximal. Higher therefore signals a need for much substance.
